This passage reports EC50 and CC50 results from ChEMBL document CHEMBL1156829 (Proc Natl Acad Sci U S A, 2008).

Data set [1] deals with Plasmodium falciparum. The data set is described as follows: NOVARTIS: Inhibition of Plasmodium falciparum 3D7 (drug-susceptible) proliferation in erythrocyte-based infection assay. Format: functional, organism-based. To be noted: Plasmodium falciparum, 3D7.
For data set [2], the system named is Plasmodium falciparum. The experiment in a line: NOVARTIS: Inhibition of Plasmodium falciparum W2 (drug-resistant) proliferation in erythrocyte-based infection assay. Format: functional, organism-based. As to conditions: Plasmodium falciparum, W2; read-out: EC50.
Data set [3] in a line: NOVARTIS: Cytotoxicity against human hepatocellular carcinoma cell line (Huh7). The format is toxicity, cell-based, Huh-7. As to conditions: Huh7 cells (hepatocellular carcinoma cell line).

For orientation: EC50 means the concentration giving half of the maximal effect. Broadly, the CC50 is the concentration giving 50% cytotoxicity. Lower therefore signals greater toxicity to the cells. Take `CCOC(=O)c1c(NC(=O)CSc2nnc(CNC(=O)c3cccc(C)c3)n2Cc2ccccc2)sc2c1CCCC2`: the EC50 in the data set on Plasmodium falciparum [1] is > 1.09 µM; in the data set on Plasmodium falciparum [2] it was > 1.46 µM. The CC50 in data set [3] was > 14 µM.

For `COc1cc(CNc2cc(OCCOc3ccc(Cl)cc3)cc(C(=O)NC3CCN(Cc4ccccc4)CC3)c2)ccc1OCc1ccccc1`, the EC50 in the data set with Plasmodium falciparum [1] is 0.902 µM; in the data set with Plasmodium falciparum [2], > 1.25 µM. Moreover, the CC50 in data set [3] is > 12.1 µM.

As for `O=S(=O)(c1ccccc1)N1CCN(CC2CNCCO2)CC1` (stereo not drawn), the figures for the EC50 in the data set with Plasmodium falciparum [1] and in the data set on Plasmodium falciparum [2] were 0.767 µM and 0.332 µM, respectively. For the same compound, half-maximal cytotoxicity in data set [3] (CC50) was put at 3.22 µM.

In the case of `CCCCNc1cc(C)nc(NCc2ccccc2)n1`, the EC50 turned out to be 0.944 µM in the data set on Plasmodium falciparum [1] and 1.02 µM with Plasmodium falciparum [2]. Further, the CC50 in data set [3] was > 10 µM.

Regarding `COc1cc(C=NNc2nc3nonc3nc2Nc2ccc(Cl)cc2)ccc1O`, the results for the EC50 in the data set with Plasmodium falciparum [1] and in the data set on Plasmodium falciparum [2] were > 1.25 µM and 1.03 µM, respectively. For the same compound, the CC50 in data set [3] was > 10 µM.

As for `C/C=C1/C[C@H]2[C@@H](OC)Nc3cc(O)c(OC)cc3C(=O)N2C1`, the results for the EC50 with Plasmodium falciparum [1] and with Plasmodium falciparum [2] were 1.03 µM and 0.875 µM, respectively. It took 8.49 µM to reach half-maximal cytotoxicity in data set [3] (CC50).

Take `CCc1c(C)nc(SCC(=O)NNC(C)=O)nc1O`: the concentration giving a half-maximal response (EC50) was > 1.25 µM in the data set on Plasmodium falciparum [1] and > 1.03 µM with Plasmodium falciparum [2]. The half-maximal cytotoxic concentration (CC50) in data set [3] is > 10 µM.

Turning to `CC1(C)CC(=O)C2=C(C1)NC(=O)CC2c1ccc(C(C)(C)C)cc1` (stereo not drawn), the EC50 was > 1.25 µM in the data set with Plasmodium falciparum [1] and > 1.01 µM in the data set on Plasmodium falciparum [2]. Moreover, in data set [3], the CC50 was > 10 µM.

`O=C(NCc1ccccc1)c1cnc(NCCCn2ccnc2)nc1NCC1CCCCC1`: the values for the EC50 in the data set on Plasmodium falciparum [1] and in the data set on Plasmodium falciparum [2] were 0.311 µM and 1.04 µM, respectively. Further, the CC50 in data set [3] was > 10 µM.

In the case of `N#C/C(=C\c1cc2ccccc2nc1Cl)c1nc(-c2ccc(Cl)c(Cl)c2)cs1`, the EC50 in the data set with Plasmodium falciparum [1] is > 1.25 µM; in the data set on Plasmodium falciparum [2], > 1.01 µM. Moreover, the 50% cytotoxic concentration (CC50) in data set [3] was > 10 µM.

Turning to `COc1ccc(/C=C2\SC(=O)NC2=Nc2ccccc2)c(OC)c1`, the EC50 was determined as 1.1 µM in the data set on Plasmodium falciparum [1] and 1.01 µM in the data set on Plasmodium falciparum [2]. Further, in data set [3], the 50% cytotoxic concentration (CC50) is > 10 µM.

For `O=C(CSc1nc2ccccc2[nH]1)Nc1ccc2c(c1)OCO2`, the results for the 50% effective concentration (EC50) in the data set with Plasmodium falciparum [1] and in the data set with Plasmodium falciparum [2] were > 1.25 µM and > 1.04 µM, respectively. In addition, the half-maximal cytotoxic concentration (CC50) in data set [3] was > 10 µM.

In the case of `Fc1ccccc1Nc1nc(NCc2ccccc2)c2ccccc2n1`, the EC50 came out at 0.463 µM in the data set on Plasmodium falciparum [1] and 0.918 µM in the data set with Plasmodium falciparum [2]. Besides, the midpoint of cytotoxicity in data set [3], the CC50, lay at 8.86 µM.

For `CCN1CCN(C2CCN(Cc3cc4ccc(F)cc4n(CCSc4ccccc4)c3=O)CC2)CC1`, the EC50 in the data set with Plasmodium falciparum [1] turned out to be 0.715 µM; in the data set with Plasmodium falciparum [2] it was 0.56 µM. In data set [3], the CC50 was 5.48 µM.

For the compound `CCCCCCN(C(=O)c1ccc(C(C)(C)C)cc1)C(CC)c1nc2cc(Cl)ccc2c(=O)n1CC` (stereo not drawn), the 50% effective concentration (EC50) worked out at 0.954 µM in the data set with Plasmodium falciparum [1] and 1.01 µM in the data set with Plasmodium falciparum [2]. Moreover, the CC50 in data set [3] was > 10 µM.

With `CCCn1c(SCCNC(=O)NCC)nc(-c2ccccc2)c1-c1ccccc1`, the EC50 in the data set on Plasmodium falciparum [1] was > 1.4 µM; in the data set with Plasmodium falciparum [2] it was > 1.03 µM. The CC50 in data set [3] was > 10 µM.

With `CCC(O)CN(c1ccccc1)c1ccccc1` (stereo not drawn), the EC50 in the data set with Plasmodium falciparum [1] was > 1.25 µM; in the data set on Plasmodium falciparum [2] it was > 1.02 µM. Also, in data set [3], the half-maximal cytotoxic concentration (CC50) is > 10 µM.

For the compound `CCN1CCC(N2CCC(n3c(C4CCC4)nc4cc(F)ccc43)CC2)CC1`, the EC50 in the data set on Plasmodium falciparum [1] is 0.453 µM; in the data set with Plasmodium falciparum [2], 2.17 µM. Moreover, in data set [3], it took 21.5 µM to reach half-maximal cytotoxicity (CC50).

Turning to `COC(=O)C1=C(C)N/C(=C\c2cc(C)n(-c3cc(Cl)ccc3Cl)c2C)C1=O`, the 50% effective concentration (EC50) in the data set on Plasmodium falciparum [1] turned out to be 1.52 µM; in the data set with Plasmodium falciparum [2], 1.01 µM. Also, the CC50 in data set [3] is > 10 µM.

Consider `C/C(=C\c1ccccc1)CN(C(=O)c1ccc(C(C)(C)C)cc1)C(C)C`, for which the EC50 was 0.217 µM in the data set on Plasmodium falciparum [1] and 0.535 µM in the data set on Plasmodium falciparum [2]. Moreover, in data set [3], the CC50 was > 5.25 µM.

As to `O=C(C1CCN(c2cccc3c2C(=O)N(C2CC2)C3=O)CC1)N1CCC(O)(c2ccc(Cl)cc2)CC1`, the EC50 was > 1.25 µM with Plasmodium falciparum [1] and > 1.02 µM in the data set on Plasmodium falciparum [2]. The CC50 in data set [3] was > 10 µM.

For `COc1ccc2oc(=O)c(C(=O)N(C)c3ccc(S(N)(=O)=O)cc3)cc2c1`, the EC50 with Plasmodium falciparum [1] is > 1.25 µM; with Plasmodium falciparum [2], > 1.01 µM. In data set [3], the CC50 was > 10 µM.

For the compound `CCCCN(C)C(=O)c1sc2ncn(CC(=O)N(CC)CC)c(=O)c2c1C`, the EC50 with Plasmodium falciparum [1] was > 1.25 µM; with Plasmodium falciparum [2], > 1.01 µM. Besides, the CC50 in data set [3] was > 10 µM.

Regarding `N#Cc1ccc(NC(=O)c2cc(Cl)ccc2O)cc1`, the EC50 in the data set with Plasmodium falciparum [1] is 1.09 µM; in the data set with Plasmodium falciparum [2], 1.01 µM. In data set [3], the CC50 is > 10 µM.

`CCOc1ccc(-n2nc(C(=O)NCCCN(C)Cc3ccccc3)c3ccccc3c2=O)cc1`: the figures for the EC50 with Plasmodium falciparum [1] and in the data set with Plasmodium falciparum [2] were > 11.2 µM and 10.3 µM, respectively. Also, the CC50 in data set [3] is > 100 µM.

On to `CCCCCCN(C(=O)c1ccc(C(C)(C)C)cc1)C(CC)c1nc2ccccc2c(=O)n1-c1ccc(F)cc1` (stereo not drawn), for which the concentration giving a half-maximal response (EC50) was 0.795 µM in the data set on Plasmodium falciparum [1] and 1.02 µM in the data set with Plasmodium falciparum [2]. Moreover, the CC50 in data set [3] is > 10 µM.
